Data set [1] has as its system N2a. As to the kind of experiment: Neuroprotective activity against oxygen-glucose deprivation/reperfusion injury in mouse Neuro2a cells assessed as cell viability at 50 uM added 4 hrs prior to oxygen-glucose deprivation induction by MTT assay (Rvb 61 +/- 5%). Format: functional. Particulars: read-out: Activity.
A short description of data set [2]: Stability in 50% diluted pooled rat serum assessed parent compound remaining at 1.5 mg measured after 24 hrs by HPLC analysis. It is filed as ADME, cell-free. Conditions: read-out: Stability.
Data set [3] is described as follows: Stability in 50% diluted pooled rat serum assessed compound degradation at 1.5 mg measured within 2 hrs by HPLC analysis. It is filed as ADME, cell-free.
For data set [4], the system named is N2a. As to the kind of experiment: Neuroprotective activity against oxygen-glucose deprivation/reperfusion injury in mouse Neuro2a cells assessed as cell viability at 6.25 uM added 4 hrs prior to oxygen-glucose deprivation induction by MTT assay (Rvb 61 +/- 5%). It is filed as functional. Particulars: read-out: Activity.

Data on seven molecules can be found in ChEMBL document CHEMBL4387789, “Linear Peptides Containing d-Leucine with Neuroprotective Activities from the Leech Whitmania pigra Whitman” (J Nat Prod, 2019).

Regarding `CC(C)C[C@H](N)C(=O)N[C@H](CC(C)C)C(=O)N[C@@H](CO)C(=O)NCC(=O)N[C@H](C(=O)N[C@H](CC(C)C)C(=O)NCC(=O)NCC(=O)O)C(C)C`, the viability at 50 µM in data set [1] is 82%. Also, the remaining at 24 h in data set [2] was determined as 65%.
Turning to `CC(C)C[C@H](NC(=O)[C@@H](N)CC(C)C)C(=O)N[C@@H](CO)C(=O)NCC(=O)N[C@H](C(=O)O)C(C)C`, the Stability entry in data set [3] was “Stable”.
In the case of `CC(C)C[C@H](N)C(=O)N[C@H](CC(C)C)C(=O)N[C@@H](CO)C(=O)NCC(=O)N[C@H](C(=O)O)C(C)C`, in data set [1], the viability at 50 µM is 86%. Besides, the remaining at 24 h in data set [2] came to 65%.
For the molecule `CC(C)C[C@H](NC(=O)[C@@H](NC(=O)CNC(=O)[C@H](CO)NC(=O)[C@H](CC(C)C)NC(=O)[C@@H](N)CC(C)C)C(C)C)C(=O)NCC(=O)O`, in data set [3], the Stability entry is given as “Stable”.
Still for that read-out and setting: next, `CC(C)C[C@H](NC(=O)[C@@H](NC(=O)CNC(=O)[C@H](CO)NC(=O)[C@H](CC(C)C)NC(=O)[C@@H](N)CC(C)C)C(C)C)C(=O)NCC(=O)NCC(=O)O`: “Stable”.
Turning to `CC1=NN(c2ccccc2)C(=O)C1` [EDARAVONE], the viability at 50 µM in data set [1] came out at 90%.
As for `CC(C)C[C@H](N)C(=O)N[C@H](CC(C)C)C(=O)N[C@@H](CO)C(=O)NCC(=O)N[C@H](C(=O)N[C@H](CC(C)C)C(=O)NCC(=O)O)C(C)C`, the viability at 6.25 µM in data set [4] is 79%. Moreover, the remaining at 24 h in data set [2] is 65%.
